In patent publication US5284871A, “Oxygen removal” (priority 1990, dated 1994):

Columns and labels:
[1] = Dissolved oxygen consumption measured with a Clark oxygen electrode; assay type: physicochemical; settings: for reducing agent in copper-mediated oxygen removal: 1 mM reducing agent, 100 micromolar copper gluconate; for oxygen utilization by one component alone / effect of protein on the rate of oxygen removal by Oxysorb: pH 7.4; for effect of chelating agent on oxygen removal by Oxysorb: 1 mM chelating agent, 100 μM copper gluconate, 10 mM sodium ascorbate; for effect of protein on the rate of oxygen removal by Oxysorb: 0.2% ascorbic acid, 40 ppm copper gluconate, with and without 2 mM glycine
Experimental: The oxygen tension was measured in 1 mM sodium ascorbate and 50 mM Tris, pH 7.4 at 25° C. using a Clark oxygen electrode.
Initial rates were measured in 50 micromolar copper sulfate, 1 mM sodium ascorbate, and 50 mM Tris, pH 7.4, at 25° C.
The initial rates were determined in 50 micromolar copper sulfate, 1 mM sodium ascorbate, and 50 mM Tris, pH 7.4 at 10° C., 15° C., 20° C., 25° C., 30° C., 35° C., and 40° C.
The rate of O2 consumption at 25° C. in 10 mM sodium ascorbate, 100 micromolar copper gluconate, 50 mM Tris, pH 7.4, and 1 mM chelating agent was monitored using a Clark electrode.
The rate of O2 consumption at 25° C. in 10 mM sodium ascorbate, 50 mM Tris, pH 7.4, and 100 micromolar transition metal was monitored using a Clark electrode.
The rate of O2 consumption at 25° C. in 100 micromolar copper gluconate, 50 mM Tris, pH 7.4, and 1 mM reducing agent was monitored using a Clark electrode.
Increasing amounts of ovalbumin in the absence and presence of glycine were added to the Oxysorb system and the rate of O2 consumption at 25° C. was monitored using a Clark electrode.
The chelating agents used for this experiment were glycine, L-histidine, phytic acid, and EDTA. Purified water and Tris were dispensed into the vial, and then 1 mM chelating agent and 100 μM copper gluconate were added. Upon stabilization of the oxygen electrode, the ascorbic acid was introduced and the reaction quickly took place.
Another experiment was designed to substitute a variety of transition metals and reducing agents in place of copper and ascorbate. The transition metals were ferric chloride, manganese sulfate, cobalt chloride, and chromium chloride. The final concentration of these metals was 100 micromolar in 10 mM ascorbic acid and 50 mM Tris buffer, pH 7.4. To start the reaction, the metal was added to these solution, and the removal of dissolved oxygen was monitored using a Clark electrode.
The reducing agents substituted for ascorbic acid were sodium sulfite, cysteine, and catechol. The order of addition was purified water, Tris, and 1 mM reducing agent. When the electrode stabilized, the copper gluconate was added.
Experiments were conducted to determine the effect of protein on the reaction of the Oxysorb system. Using a Clark electrode, the oxygen consumption was measured in solutions containing 50 mM Tris, pH 7.4, 0.2% ascorbic acid, 40 ppm copper gluconate, variable amounts of ovalbumin, with and without 2 mM glycine. The order of addition was water, Tris, glycine, copper gluconate, ovalbumin, and ascorbic acid.

[2] = system: E. coli; test: Growth of E. coli in nutrient broth with and without sodium ascorbate and metals; assay type: cell-based; parameters: Growth of E. coli in nutrient broth: unit not given here; settings: 25° C.; for Growth of E. coli in nutrient broth: sodium ascorbate 0.2%, metal 88 μM
Experimental: (§1) To determine the antimicrobial effects of Oxysorb, 10 ml of broth in 16×100 screw-capped tubes were inoculated with diluted, overnight cultures to achieve an initial population of 100 to 1000 cells/ml. Nutrient broth was used for E. coli and Pseudomonas fluorescens; fluid thioglycollate medium was used for Clostridium sporogenes. Following inoculation, sodium ascorbate was added at a level of 0.2%, then 88 μM metal salt (copper gluconate, cobalt chloride, or ferric chloride). Ascorbate, copper, cobalt, and iron solutions were prepared and filter sterilized just prior to use. Tubes were incubated at 25° C. with caps tightened, unless they were placed in anaerobic (Gas Pak) jars. Anaerobically incubated tubes had loose caps to allow for generation of an anaerobic environment in the tube headspace. Samples from two individual tubes were plated periodically.

[3] = system: Pseudomonas fluorescens; test: Growth of Pseudomonas fluorescens in nutrient broth with and without sodium ascorbate and metals; assay type: cell-based; settings: 25° C.; for Growth of Pseudomonas fluorescens in nutrient broth: sodium ascorbate 0.2%, metal 88 μM; for effect on the growth of Pseudomonas fluorescens: nutrient broth
Experimental: as §1

[4] = system: yeast; test: Yeast growth at 25° C. with the oxygen scavenging system; assay type: cell-based; settings: 4-day period, 0.004% copper gluconate, 0.2% sodium ascorbate
[5] = Oxidation of ascorbic acid to dehydroascorbic acid, monitored spectrophotometrically; assay type: physicochemical; settings: 50 micromolar ascorbic acid, 1 micromolar Cu^2+, pH 7.4, 25° C.; 1000 U/ml catalase, 25 U/ml SOD
Experimental: The rate of oxidation at 25° C. in 50 mM Tris, pH 7.4, was monitored spectrophotometrically. […] The rate of oxidation at 25° C. in 50 mM Tris, pH 7.4, was monitored spectrophotometrically. […] Both reactions were carried out at 25° C. in 50 mM Tris, pH 7.4.

[6] = system: microorganisms in potato water; test: Microbiological evaluation of potato water; settings: room temperature
Experimental: Another experiment was conducted to determined if the system of the present invention could delay or prevent textural degradation of potatoes stored in water. Raw potatoes were peeled, cubed, and immersed in water and in solutions of 40 ppm copper gluconate and 0.1% or 0.5% ascorbic acid. The samples were kept in uncovered glass mason jars at room temperature.

[7] = system: polyphenol oxidase activity in potatoes; test: Browning of pureed potato; settings: refrigerated, seven days
From the text: A control of water and potato was pureed in a blender and placed into a screw top jar, filled to overflowing to minimize headspace. The same was done to a sample of potato and 40 ppm copper gluconate and 0.1% ascorbic acid in water. The jars were refrigerated and inverted frequently to disperse any foam formed.

[8] = anaerobic incubation (Gas Pak jar)

O=S([O-])[O-].[Na+].[Na+] [sulfite, sodium sulfite]
reducing agent in copper-mediated oxygen removal ([1]; pH 7.4, 25° C.): more reactive than catechol

O=C1O[C@H]([C@@H](O)CO)C([O-])=C1O.[Na+] [Ascorbate, sodium ascorbate]
Growth of E. coli in nutrient broth ([2]; Time 0 days): 350 | Growth of E. coli in nutrient broth ([2]; Time 0.25 days): 4600 | Growth of E. coli in nutrient broth ([2]; Time 1 day): 1.6 × 10^8 | Growth of E. coli in nutrient broth ([2]; Time 2 days): 4.6 × 10^8 | Growth of E. coli in nutrient broth ([2]; Time 5 days): 3.8 × 10^8 | effect on the growth of E. coli [2, 8]: slightly reduced the maximum population | effect on the growth of E. coli ([2]; sealed tubes, nutrient broth): little effect | oxygen utilization by one component alone [1]: No oxygen utilization | Growth of Pseudomonas fluorescens in nutrient broth ([3]; Time 0 days): 160 | Growth of Pseudomonas fluorescens in nutrient broth ([3]; Time 0.25 days): 170 | Growth of Pseudomonas fluorescens in nutrient broth ([3]; Time 1 day): 4.7 × 10^7 | Growth of Pseudomonas fluorescens in nutrient broth ([3]; Time 4 days): 7.2 × 10^8 | Growth of Pseudomonas fluorescens in nutrient broth ([3]; Time 6 days): 2.7 × 10^8

copper gluconate [Cu^2+]
Growth of E. coli in nutrient broth ([2]; Time 0 days): 510 | Growth of E. coli in nutrient broth ([2]; Time 0.25 days): 3100 | Growth of E. coli in nutrient broth ([2]; Time 1 day): 4.7 × 10^7 | Growth of E. coli in nutrient broth ([2]; Time 2 days): 4.8 × 10^7 | Growth of E. coli in nutrient broth ([2]; Time 5 days): 7.3 × 10^6 | effect on the growth of E. coli [2, 8]: further suppressed growth | effect on the growth of E. coli ([2]; sealed tubes, nutrient broth): reduced both the growth rate and the maximum population | transition metal as catalyst of oxygen removal ([1]; 100 micromolar metal, 10 mM ascorbic acid, 50 mM Tris pH 7.4): best catalyst | Growth of Pseudomonas fluorescens in nutrient broth ([3]; Time 0 days): 140 | Growth of Pseudomonas fluorescens in nutrient broth ([3]; Time 0.25 days): 180 | Growth of Pseudomonas fluorescens in nutrient broth ([3]; Time 1 day): 9.6 × 10^7 | Growth of Pseudomonas fluorescens in nutrient broth ([3]; Time 6 days): 1.6 × 10^8 | effect on yeast growth [4]: no toxicity

superoxide dismutase
effect on oxidation of ascorbic acid in the presence of Cu^2+ [5]: substantial acceleration

NCC(=O)O [glycine]
effect of chelating agent on oxygen removal by Oxysorb ([1]; pH 7.4, 25° C.): faster than that of the control | effect of protein on the rate of oxygen removal by Oxysorb [1]: diminished this protein effect

CC(O)CO (centres unmarked) [propylene glycol]
effect of freezing point depressant on the rate of oxygen removal ([1]; 50 micromolar copper sulfate, 1 mM sodium ascorbate, pH 7.4, 25° C.): not affected significantly

O=S([O-])O.[Na+] [sodium bisulfite]
effect on chemical and microbiological events in potatoes stored in water [6]: no effect at all | browning of pureed potato [7]: this browning does not occur

[Cl][Fe]([Cl])[Cl] [Fe^3+, ferric chloride]
Growth of E. coli in nutrient broth ([2]; Time 0 days): 420 | Growth of E. coli in nutrient broth ([2]; Time 0.25 days): 6400 | Growth of E. coli in nutrient broth ([2]; Time 1 day): 2.1 × 10^8 | Growth of E. coli in nutrient broth ([2]; Time 2 days): 3.4 × 10^8 | Growth of E. coli in nutrient broth ([2]; Time 5 days): 1.5 × 10^8 | effect on the growth of E. coli ([2]; sealed tubes, nutrient broth): no effect | Growth of Pseudomonas fluorescens in nutrient broth ([3]; Time 0 days): 130 | Growth of Pseudomonas fluorescens in nutrient broth ([3]; Time 0.25 days): 160 | Growth of Pseudomonas fluorescens in nutrient broth ([3]; Time 1 day): 6.2 × 10^7 | Growth of Pseudomonas fluorescens in nutrient broth ([3]; Time 4 days): 8.1 × 10^7 | Growth of Pseudomonas fluorescens in nutrient broth ([3]; Time 6 days): 5.1 × 10^7 | effect on the growth of Pseudomonas fluorescens [3]: did not differ from the control

O=S(=O)([O-])[O-].[Cu+2] [copper sulfate]
oxygen utilization by one component alone [1]: No oxygen utilization

O=C(O)CN(CCN(CC(=O)O)CC(=O)O)CC(=O)O [EDTA]
effect of chelating agent on oxygen removal by Oxysorb ([1]; pH 7.4, 25° C.): almost completely inhibited

O=C1O[C@H]([C@@H](O)CO)C(O)=C1O [ascorbic acid]
reducing agent in copper-mediated oxygen removal ([1]; pH 7.4, 25° C.): most efficient reducing agent

N[C@@H](Cc1c[nH]cn1)C(=O)O [Histidine, L-histidine]
effect of chelating agent on oxygen removal by Oxysorb ([1]; pH 7.4, 25° C.): some inhibition

O=P(O)(O)O[C@H]1[C@H](OP(=O)(O)O)[C@@H](OP(=O)(O)O)[C@H](OP(=O)(O)O)[C@@H](OP(=O)(O)O)[C@H]1OP(=O)(O)O [Phytic acid, phytic acid]
effect of chelating agent on oxygen removal by Oxysorb ([1]; pH 7.4, 25° C.): slightly slower than the control

N[C@@H](CS)C(=O)O [cysteine]
reducing agent in copper-mediated oxygen removal ([1]; pH 7.4, 25° C.): more reactive than sulfite

[Cl][Co][Cl] [Co^2+, cobalt chloride]
Growth of E. coli in nutrient broth ([2]; Time 0 days): 430 | Growth of E. coli in nutrient broth ([2]; Time 0.25 days): 690 | Growth of E. coli in nutrient broth ([2]; Time 1 day): 8.1 × 10^5 | Growth of E. coli in nutrient broth ([2]; Time 2 days): 2.2 × 10^6 | Growth of E. coli in nutrient broth ([2]; Time 5 days): 4.5 × 10^8 | effect on the growth of E. coli ([2]; sealed tubes, nutrient broth): Growth was slowed but not stopped | Growth of Pseudomonas fluorescens in nutrient broth ([3]; Time 0 days): 150 | Growth of Pseudomonas fluorescens in nutrient broth ([3]; Time 0.25 days): 65 | Growth of Pseudomonas fluorescens in nutrient broth ([3]; Time 1 day): 1.9 × 10^6 | Growth of Pseudomonas fluorescens in nutrient broth ([3]; Time 4 days): 5.6 × 10^8 | Growth of Pseudomonas fluorescens in nutrient broth ([3]; Time 6 days): 5.5 × 10^7 | effect on the growth of Pseudomonas fluorescens [3]: slowed the growth

catalase
effect on oxidation of ascorbic acid in the presence of Cu^2+ [5]: inhibition

B1: ovalbumin: protein added to the Oxysorb system; binds copper with high affinity (protein, UniProt P01012 2-386, looked up)
Ovalbumin: GSIGAASMEFCFDVFKELKVHHANENIFYCPIAIMSALAMVYLGAKDSTRTQINKVVRFDKLPGFGDSIEAQCGTSVNVHSSLRDILNQITKPNDVYSFSLASRLYAEERYPILPEYLQCVKELYRGGLEPINFQTAADQARELINSWVESQTNGIIRNVLQPSSVDSQTAMVLVNAIVFKGLWEKAFKDEDTQAMPFRVTEQESKPVQMMYQIGLFRVASMASEKMKILELPFASGTMSMLVLLPDEVSGLEQLESIINFEKLTEWTSSNVMEERKIKVYLPRMKMEEKYNLTSVLMAMGITDVFSSSANLSGISSAESLKISQAVHAAHAEINEAGREVVGSAEAGVDAASVSEEFRADHPFLFCIKHIATNAVLFFGRCVSP
effect of protein on the rate of oxygen removal by Oxysorb [1]: greatly decreases the rate of oxygen removal
